Laboratory results reported in patent EP3884941A1, “INFLAMMASOME INHIBITORS AND USE THEREOF” (CENTRO DE INVESTIGACION PRINCIPE FELIPE, priority 2020, dated 2021).
Entries after “also recorded” stand apart in the source; their conditions may differ. Peptide text beside a SMILES is read from it. * marks the point of attachment. Cbz = O=C(OCc1ccccc1)*; CH2F = FC*

How the values were obtained:
[1] = target: T1, ASC-mediated PC1 activation (Homo sapiens, UniProt P29466); test: ASC-mediated PC1 reconstitution in vitro assay (primary screening); assay type: biochemical; conditions: PC1 50 nM, ASC 300 nM, substrate Ac-WEHD-AFC; read-out: IC50
T1 construct: His; made in house; host or cells: PC1: Sf9 insect cells (baculovirus)
T1 sequence (P29466 1-404): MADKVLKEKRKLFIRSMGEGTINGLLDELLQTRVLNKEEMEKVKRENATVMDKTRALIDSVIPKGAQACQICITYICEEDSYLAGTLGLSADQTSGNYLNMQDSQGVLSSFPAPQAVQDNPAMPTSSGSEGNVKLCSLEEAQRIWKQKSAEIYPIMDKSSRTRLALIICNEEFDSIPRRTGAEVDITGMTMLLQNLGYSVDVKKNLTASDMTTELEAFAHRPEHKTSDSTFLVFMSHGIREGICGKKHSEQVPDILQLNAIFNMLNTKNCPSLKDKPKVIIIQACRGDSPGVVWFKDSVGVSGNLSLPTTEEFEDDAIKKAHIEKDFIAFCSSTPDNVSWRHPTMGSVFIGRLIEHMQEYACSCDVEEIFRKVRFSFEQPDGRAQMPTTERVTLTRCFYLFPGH
Protocol: Recombinant PC1 (50 nM) was preincubated with the indicated concentrations of compounds for 20 min at RT in Assay Buffer (20 mM HEPES pH 7.5, 10 mM KCI, 1.5 mM MgCl2, 1mM EDTA, 1 mM EGTA, 1 mM DTT). Then 300 nM of ASC were added and incubated for another 10 min period. Caspase-1 activation was measured using fluorogenic substrate Ac-WEHD-AFC (80 µM; Enzo Life Sciences) by continuously monitoring the release of the AFC (7-Amino-4-trifluoromethylcoumarin) product in a Wallac Victor workstation. The compounds were initially tested at 20 µM with 1% of DMSO. Data are reported as the percentage of inhibition compared with the absence of the compound.
The materials and methods employed in these experiments are now described.

[2] = system: ASC specks in THP1-ASC-GFP cells; test: ASC speck assay; assay type: cell-based, human; conditions: THP-1 ASC GFP, LPS 100 ng/mL + nigericin 10 µM; MM01 10 µM, VX-765 5 µM
Protocol: THP1-ASC-GFP cells were seeded at 1×10^6/ml the day prior to use in experiments on 35 mm glass-bottom culture dishes. The following day medium was replaced containing the indicated inhibitors or vehicle for 30 min. Cells were then primed with 100 ng/ml LPS for 3h and stimulated with 10 µM nigericin for 30 min. Samples were fixed in 4% paraformaldehyde (PFA) for 10 min at RT and washed several times. Coverslips were prepared in mounting medium plus DAPI and analyzed in a Leica SP8 confocal microscope.

NLRP3 inflammasome [3] = test: human PBMCs cellular assay, LPS plus ATP; assay type: cell-based; conditions: human PBMCs, LPS and ATP, VX-765 5 µM
Protocol: Human peripheral blood mononuclear cells (PBMCs) are lymphocytes and monocytes. PBMCs were separated from the whole blood by a density gradient centrifugation method using Ficoll Histopaque. Purified PBMCs were plated in 24-well plates at 5000000 cells/well in free-serum RPMI medium. Cells were primed for 3 h with 10 ng/ml pure LPS followed by 4 h with compounds and 5 mM ATP. Supernatants were harvested and clarified by centrifugation at 1500 rpm at RT and cytokine and caspase-1 activation analysis was performed as previously described.

NLRP3 inflammasome [4] = test: inflammasome activation cellular assay, LPS plus ATP, THP-1 cells; assay type: cell-based, human; conditions: THP-1, LPS + ATP; pyroptosis / cell viability; MM01 1, 2.5 or 5 µM, VX-765 5 µM
Protocol: The MM01 compound was evaluated in the THP-1, or PMA-differentiated THP-1 cells (50 nM PMA for 24h) stimulated with lipopolysaccharide (LPS) plus adenosine triphosphate (ATP) to stimulate ASC-dependent inflammasomes NLRP3. Briefly, 1x10^6 cells were seeded in 6-well plates in 1 mL RPMI media that contained 1% FBS. Cells were either mock-treated or primed with compounds at the indicated concentrations for 30 min, followed by treatment with 100 ng/mL LPS (Sigma) and 2.5 mM ATP (Sigma) for 6 h at 37°C. In the case of nigericin stimulation, cells were primed with LPS for 3h, and then 10 µM nigericin (Sigma) was added for 30 min. Supernatants were harvested and clarified by centrifugation at 1500 rpm at RT, and a cytokine analysis was performed. Both IL-1β secretion and the release of IL-18were monitored by an ELISA assay (BD OptEIA™ Human IL-1β ELISA Kit and Human IL-18 Module Set eBioscience) following the manufacturer's instructions. Cell viability was analyzed in parallel by evaluating the release of lactate dehydrogenase (LDH) according to a commercial kit (CytoTox-ONE™ Homogeneous Membrane Integrity Assay; Promega). The release of LDH was calculated using the formula: the release of LDH (%) = 100x (Abs490 treated -Abs490 untreated cells)/ Abs490 untreated cells lysed with Triton 9% (maximum release of LDH).
The supernatants of the treated cells were precipitated by the chloroform-methanol method. Pellets were obtained by lysing cells in 25 mM of Tris-HCI pH 7.4, 1 mM EDTA, 1 mM EGTA and 1% SDS, plus protease and phosphatase inhibitors. The protein concentration was determined by the BCA protein assay. Samples were separated in a 14% SDS-PAGE gel, transferred to a nitrocellulose membrane and blocked with 5% skimmed milk for 1 h. Then the membrane was incubated overnight with primary antibodies: α-casp1 (1:1000; Cell Signaling 2225), α-IL-1β (1:1000; Acris R1130P), α-NLRP3 (1:1000; Cell Signaling 15101), α-tubulin (1:3000; Abcam ab6160) at 4°C. Membranes were washed and probed with the appropriate secondary antibody conjugated with peroxidase for enhanced chemiluminescence detection (Amersham Pharmacia Biotech).

Recombinant caspase-1 = target: T2, Recombinant caspase-1 (Homo sapiens, UniProt P29466); test: caspase-1 in vitro activation assay (secondary screening); assay type: biochemical; conditions: preactivated recombinant caspase-1
T2 sequence (P29466 120-297 limits assumed): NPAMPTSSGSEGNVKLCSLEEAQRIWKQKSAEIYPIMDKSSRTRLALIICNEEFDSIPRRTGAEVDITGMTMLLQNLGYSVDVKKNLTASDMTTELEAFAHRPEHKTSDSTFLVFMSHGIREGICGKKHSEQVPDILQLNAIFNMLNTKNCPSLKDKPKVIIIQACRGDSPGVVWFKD
T2 sequence (P29466 317-404 limits assumed): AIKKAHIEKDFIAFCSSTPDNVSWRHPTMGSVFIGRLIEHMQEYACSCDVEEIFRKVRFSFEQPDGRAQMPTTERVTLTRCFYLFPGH
Protocol: Recombinant caspase-1 (50 nM) was incubated with the indicated concentrations of compounds for 20 min at RT in Assay Buffer. Then fluorogenic substrate Ac-WEHD-AFC (80 µM) was added, and activity was monitored in a Wallac Victor workstation. Data are reported as the percentage of inhibition compared with the absence of the inhibitor.

Work on CCCCN1C(=O)/C(=C2\SC(=S)N(Cc3ccco3)C2=O)c2cc(Br)ccc21 yielded an IC50 [1] of 300 ± 100 nM.

COCCN1C(=O)/C(=C2/C(=O)Nc3ccc(Br)cc32)SC1=S was tested, and the IC50 [1] was 1500 ± 800 nM.

In the case of CCO[C@@H]1OC(=O)C[C@@H]1NC(=O)[C@@H]1CCCN1C(=O)[C@@H](NC(=O)c1ccc(N)c(Cl)c1)C(C)(C)C [VX-765, reference compound], the ASC speck formation [2] is reported as “not inhibited”, the inflammatory cell death (NLRP3 inflammasome [3]; LDH release) is reported as “did not protect” and the cytokine release (NLRP3 inflammasome [3]) is reported as “able to inhibit”. For the same molecule, the LDH release (NLRP3 inflammasome [4]) was “does not decrease; also recorded: no recovery of cell viability”.

For CC(NC(=O)C(NC(=O)OCc1ccccc1)C(C)C)C(=O)NC(CC(=O)O)C(=O)CF (stereo not drawn) [zVAD, reference compound] (Cbz-Val-Ala-Asp-CH2F; configuration not given here), the caspase-1 activity (Recombinant caspase-1) was “inhibits”.
